From ChEMBL document CHEMBL1201862, “PubChem BioAssay data set” (2004)
Each block holds one compound with its values, some of them ahead of it. Activity calls are given as the source filed them.

What was measured:
Mu-type opioid receptor [1] = target: T1, Mu-type opioid receptor (Homo sapiens, UniProt P35372); assay: HTS Image-Based Screen for Agonists of the MOR Receptor. [Related pubchem assays (depositor defined):AID1777, AID1785, AID1786, AID2133]; type: functional
[2] = target: T2, Kappa-type opioid receptor (Homo sapiens, UniProt P41145); assay: SAR analysis of small molecule agonists of the kappa opioid receptor via a luminescent beta-arrestin assay. [Related pubchem assays (depositor defined):AID1777, AID1786, AID1966, AID2133, AID2136, AID2348, AID2352, AID2357, AID2359, AID2370, AID2420, AID2478, AID2491, AID2492, AID2493, AID2497, AID2498, AID2500, AID449737, AID488822, AID488842]; type: functional
[3] = target: T2, Kappa-type opioid receptor; assay: kappa opioid receptor blockers, image-based, SAR follow-up (AID 2348); type: functional
[4] = target: T3, Delta-type opioid receptor (Homo sapiens, UniProt P41143); assay: delta opioid receptor blockers – image-based, SAR follow-up (AID 2357); type: functional
[5] = target: T2, Kappa-type opioid receptor; type: functional
[6] = target: T3, Delta-type opioid receptor; assay: HTS Image-Based Screen for Agonists of the DOR Receptor. [Related pubchem assays (depositor defined):AID1777, AID1786, AID2133]; type: functional
Mu-type opioid receptor [7] = target: T1, Mu-type opioid receptor; assay: mu opioid receptor blockers – image-based, SAR follow-up (AID 2420); type: functional;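 note: compounds added before stimulation of receptor with agonist DAMGO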
[8] = target: T3, Delta-type opioid receptor; assay: HTS Image-Based Screen for Antagonists of the DOR Receptor. [Related pubchem assays (depositor defined):AID1777, AID1785, AID1786, AID2133]; type: functional
[9] = target: T2, Kappa-type opioid receptor; type: functional; remark: listed apart in the source
[10] = target: T2, Kappa-type opioid receptor; assay: SAR analysis of small molecule agonists of the kappa opioid receptor via a luminescent beta-arrestin assay - Set 3. [Related pubchem assays (depositor defined):AID1777, AID1785, AID1786, AID1966, AID2133, AID2136, AID2284, AID2500]; type: functional
[11] = target: T3, Delta-type opioid receptor; assay: DOR agonists, SAR follow-up, image-based (AID 2370); type: functional
Mu-type opioid receptor [12] = target: T1, Mu-type opioid receptor; assay: mu opioid receptor activators, image-based, SAR follow-up (AID 2352); type: functional
[13] = decrease of insulin promoter-GFP reporter – imaging, high-content screening, mouse beta cells (AID 1628); type: functional; conditions: MIN6
[14] = MIN6 cell viability loss – mouse insulinoma, cytotoxicity control, dose response (AID 2122); type: functional;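 note: confirmatory high-throughput counterscreen run to flag cytotoxic compounds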
Hexokinase HKDC1 = target: T4, Hexokinase HKDC1 (Homo sapiens, UniProt Q2TB90); assay: analog inhibition of human HKDC1 activity – biochemical, set 2, SAR follow-up (AID 588355); type: functional
T4 sequence (Q2TB90 whole entry): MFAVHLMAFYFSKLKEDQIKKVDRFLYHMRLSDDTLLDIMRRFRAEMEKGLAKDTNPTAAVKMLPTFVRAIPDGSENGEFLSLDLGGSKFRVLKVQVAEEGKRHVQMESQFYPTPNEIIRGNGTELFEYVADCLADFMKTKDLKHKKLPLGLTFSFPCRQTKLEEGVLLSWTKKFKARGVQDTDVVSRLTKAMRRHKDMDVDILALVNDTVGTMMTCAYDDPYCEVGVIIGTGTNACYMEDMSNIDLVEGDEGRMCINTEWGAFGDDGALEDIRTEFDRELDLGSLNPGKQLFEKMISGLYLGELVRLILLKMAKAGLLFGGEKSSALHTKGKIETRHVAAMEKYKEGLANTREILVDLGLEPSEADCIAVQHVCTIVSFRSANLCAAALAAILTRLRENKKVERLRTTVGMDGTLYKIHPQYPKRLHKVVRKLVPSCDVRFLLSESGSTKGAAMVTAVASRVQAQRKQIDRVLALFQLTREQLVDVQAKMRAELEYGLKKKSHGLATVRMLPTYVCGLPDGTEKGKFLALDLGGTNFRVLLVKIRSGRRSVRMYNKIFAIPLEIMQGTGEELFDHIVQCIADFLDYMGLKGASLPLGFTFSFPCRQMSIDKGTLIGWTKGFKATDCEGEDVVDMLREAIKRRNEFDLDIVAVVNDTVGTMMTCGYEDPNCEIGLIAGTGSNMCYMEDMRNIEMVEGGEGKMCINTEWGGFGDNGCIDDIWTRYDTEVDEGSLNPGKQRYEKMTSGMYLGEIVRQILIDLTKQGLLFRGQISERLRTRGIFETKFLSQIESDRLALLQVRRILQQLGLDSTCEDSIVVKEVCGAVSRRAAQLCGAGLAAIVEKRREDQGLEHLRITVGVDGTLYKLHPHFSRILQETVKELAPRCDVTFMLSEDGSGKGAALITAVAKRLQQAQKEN

Hexokinase-1 = target: T5, Hexokinase-1 (Homo sapiens, UniProt P19367); assay: hexokinase 1 activity inhibitors, potency – biochemical, set 2, resazurin fluorescence coupled readout, selectivity assay for HKDC1 inhibitor project, SAR follow-up (AID 588356); type: functional
T5 sequence (P19367 whole entry): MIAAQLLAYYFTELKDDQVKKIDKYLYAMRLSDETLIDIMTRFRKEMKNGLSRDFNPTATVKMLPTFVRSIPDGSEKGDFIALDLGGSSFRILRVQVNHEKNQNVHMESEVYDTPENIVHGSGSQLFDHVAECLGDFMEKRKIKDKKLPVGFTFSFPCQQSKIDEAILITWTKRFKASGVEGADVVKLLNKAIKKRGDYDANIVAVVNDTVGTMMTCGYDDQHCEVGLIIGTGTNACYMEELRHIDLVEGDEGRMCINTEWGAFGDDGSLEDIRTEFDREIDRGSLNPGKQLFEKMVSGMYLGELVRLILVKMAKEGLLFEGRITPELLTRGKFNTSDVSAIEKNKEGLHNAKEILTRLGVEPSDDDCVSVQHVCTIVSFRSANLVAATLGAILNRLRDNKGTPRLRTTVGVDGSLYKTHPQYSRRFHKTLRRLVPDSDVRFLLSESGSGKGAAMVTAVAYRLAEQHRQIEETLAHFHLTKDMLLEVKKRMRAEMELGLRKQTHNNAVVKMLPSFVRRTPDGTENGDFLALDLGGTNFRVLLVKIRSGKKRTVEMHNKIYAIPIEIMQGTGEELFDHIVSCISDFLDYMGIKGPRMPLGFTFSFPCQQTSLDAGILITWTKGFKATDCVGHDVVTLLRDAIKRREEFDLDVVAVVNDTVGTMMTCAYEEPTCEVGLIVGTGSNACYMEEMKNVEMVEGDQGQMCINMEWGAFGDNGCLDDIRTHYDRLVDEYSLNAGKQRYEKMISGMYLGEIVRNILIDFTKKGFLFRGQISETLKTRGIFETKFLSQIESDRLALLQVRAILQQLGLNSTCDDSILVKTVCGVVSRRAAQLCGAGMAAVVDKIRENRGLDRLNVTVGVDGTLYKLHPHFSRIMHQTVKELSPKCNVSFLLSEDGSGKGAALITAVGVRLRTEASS

[15] = target: Peroxisome proliferator-activated receptor gamma/Nuclear receptor coactivator 1 (Homo sapiens, UniProt P37231); type: functional;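 note: agonist potency as compounds enhance coactivator SRC-1 recruitment to PPARgamma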
[16] = target: Peroxisome proliferator-activated receptor gamma/Nuclear receptor coactivator 3 (Homo sapiens, UniProt P37231); type: functional;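 note: agonist potency for raising coactivator recruitment to the receptor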
Cytochrome P450 2D6 = Cytochrome P450 2D6 (Homo sapiens, UniProt P10635);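 note: CYP2D6 member of a cytochrome P450 panel assay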
Cytochrome P450 2C9 = Cytochrome P450 2C9 (Homo sapiens, UniProt P11712)
[17] = target: Peroxisome proliferator-activated receptor gamma/Nuclear receptor coactivator 2 (Homo sapiens, UniProt P37231); type: functional;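 note: agonist potency for raising coactivator recruitment to the receptor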
Cytochrome P450 3A4 = Cytochrome P450 3A4 (Homo sapiens, UniProt P08684);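 note: CYP3A4 tested as one member of a cytochrome P450 panel screen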

T2 sequence (P41145 whole entry): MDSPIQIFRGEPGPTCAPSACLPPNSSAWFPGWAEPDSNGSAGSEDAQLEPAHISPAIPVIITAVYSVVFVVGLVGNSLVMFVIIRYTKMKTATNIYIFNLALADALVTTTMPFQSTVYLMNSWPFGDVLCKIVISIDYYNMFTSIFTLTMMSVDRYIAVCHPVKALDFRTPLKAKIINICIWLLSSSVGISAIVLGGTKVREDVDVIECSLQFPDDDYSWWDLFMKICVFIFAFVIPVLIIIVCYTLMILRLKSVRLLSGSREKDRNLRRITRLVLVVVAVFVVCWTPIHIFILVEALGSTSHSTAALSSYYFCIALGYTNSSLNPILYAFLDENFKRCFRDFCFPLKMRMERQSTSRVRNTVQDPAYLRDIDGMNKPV
T1 sequence (P35372 whole entry): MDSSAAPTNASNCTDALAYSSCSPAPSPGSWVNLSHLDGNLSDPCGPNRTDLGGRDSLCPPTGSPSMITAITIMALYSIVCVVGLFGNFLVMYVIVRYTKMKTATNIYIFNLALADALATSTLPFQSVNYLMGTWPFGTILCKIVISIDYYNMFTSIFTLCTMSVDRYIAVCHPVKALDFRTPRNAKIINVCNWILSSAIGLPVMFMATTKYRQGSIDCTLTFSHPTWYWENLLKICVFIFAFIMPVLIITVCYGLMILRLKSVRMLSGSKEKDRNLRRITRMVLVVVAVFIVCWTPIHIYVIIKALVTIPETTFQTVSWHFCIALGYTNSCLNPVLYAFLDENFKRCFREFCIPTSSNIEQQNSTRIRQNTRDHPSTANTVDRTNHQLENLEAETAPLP
T3 sequence (P41143 whole entry): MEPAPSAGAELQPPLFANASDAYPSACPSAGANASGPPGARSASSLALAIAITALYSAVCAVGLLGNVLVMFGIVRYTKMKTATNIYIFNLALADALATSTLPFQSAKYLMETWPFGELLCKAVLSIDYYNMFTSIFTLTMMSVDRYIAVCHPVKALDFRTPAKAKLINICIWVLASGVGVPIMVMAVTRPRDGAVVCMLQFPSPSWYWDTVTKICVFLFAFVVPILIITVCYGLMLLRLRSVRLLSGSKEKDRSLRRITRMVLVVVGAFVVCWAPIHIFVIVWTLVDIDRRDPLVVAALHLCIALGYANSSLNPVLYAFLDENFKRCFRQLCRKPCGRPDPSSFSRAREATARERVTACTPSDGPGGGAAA
Sequence of Peroxisome proliferator-activated receptor gamma/Nuclear receptor coactivator 1 (P37231 whole entry): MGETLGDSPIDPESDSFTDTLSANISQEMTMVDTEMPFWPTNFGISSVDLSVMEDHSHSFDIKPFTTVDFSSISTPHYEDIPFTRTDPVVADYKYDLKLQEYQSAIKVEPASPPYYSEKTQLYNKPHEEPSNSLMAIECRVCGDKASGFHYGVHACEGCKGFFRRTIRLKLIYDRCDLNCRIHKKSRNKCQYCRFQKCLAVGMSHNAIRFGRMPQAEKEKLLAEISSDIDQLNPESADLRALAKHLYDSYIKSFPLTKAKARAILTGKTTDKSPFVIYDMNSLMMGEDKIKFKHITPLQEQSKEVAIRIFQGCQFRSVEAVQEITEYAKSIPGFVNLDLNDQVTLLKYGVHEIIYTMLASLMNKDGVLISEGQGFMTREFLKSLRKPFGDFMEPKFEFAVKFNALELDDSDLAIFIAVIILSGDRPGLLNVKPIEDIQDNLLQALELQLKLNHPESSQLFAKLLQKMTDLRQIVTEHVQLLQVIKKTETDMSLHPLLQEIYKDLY
Sequence of Peroxisome proliferator-activated receptor gamma/Nuclear receptor coactivator 1 (Q15788 whole entry, further chain): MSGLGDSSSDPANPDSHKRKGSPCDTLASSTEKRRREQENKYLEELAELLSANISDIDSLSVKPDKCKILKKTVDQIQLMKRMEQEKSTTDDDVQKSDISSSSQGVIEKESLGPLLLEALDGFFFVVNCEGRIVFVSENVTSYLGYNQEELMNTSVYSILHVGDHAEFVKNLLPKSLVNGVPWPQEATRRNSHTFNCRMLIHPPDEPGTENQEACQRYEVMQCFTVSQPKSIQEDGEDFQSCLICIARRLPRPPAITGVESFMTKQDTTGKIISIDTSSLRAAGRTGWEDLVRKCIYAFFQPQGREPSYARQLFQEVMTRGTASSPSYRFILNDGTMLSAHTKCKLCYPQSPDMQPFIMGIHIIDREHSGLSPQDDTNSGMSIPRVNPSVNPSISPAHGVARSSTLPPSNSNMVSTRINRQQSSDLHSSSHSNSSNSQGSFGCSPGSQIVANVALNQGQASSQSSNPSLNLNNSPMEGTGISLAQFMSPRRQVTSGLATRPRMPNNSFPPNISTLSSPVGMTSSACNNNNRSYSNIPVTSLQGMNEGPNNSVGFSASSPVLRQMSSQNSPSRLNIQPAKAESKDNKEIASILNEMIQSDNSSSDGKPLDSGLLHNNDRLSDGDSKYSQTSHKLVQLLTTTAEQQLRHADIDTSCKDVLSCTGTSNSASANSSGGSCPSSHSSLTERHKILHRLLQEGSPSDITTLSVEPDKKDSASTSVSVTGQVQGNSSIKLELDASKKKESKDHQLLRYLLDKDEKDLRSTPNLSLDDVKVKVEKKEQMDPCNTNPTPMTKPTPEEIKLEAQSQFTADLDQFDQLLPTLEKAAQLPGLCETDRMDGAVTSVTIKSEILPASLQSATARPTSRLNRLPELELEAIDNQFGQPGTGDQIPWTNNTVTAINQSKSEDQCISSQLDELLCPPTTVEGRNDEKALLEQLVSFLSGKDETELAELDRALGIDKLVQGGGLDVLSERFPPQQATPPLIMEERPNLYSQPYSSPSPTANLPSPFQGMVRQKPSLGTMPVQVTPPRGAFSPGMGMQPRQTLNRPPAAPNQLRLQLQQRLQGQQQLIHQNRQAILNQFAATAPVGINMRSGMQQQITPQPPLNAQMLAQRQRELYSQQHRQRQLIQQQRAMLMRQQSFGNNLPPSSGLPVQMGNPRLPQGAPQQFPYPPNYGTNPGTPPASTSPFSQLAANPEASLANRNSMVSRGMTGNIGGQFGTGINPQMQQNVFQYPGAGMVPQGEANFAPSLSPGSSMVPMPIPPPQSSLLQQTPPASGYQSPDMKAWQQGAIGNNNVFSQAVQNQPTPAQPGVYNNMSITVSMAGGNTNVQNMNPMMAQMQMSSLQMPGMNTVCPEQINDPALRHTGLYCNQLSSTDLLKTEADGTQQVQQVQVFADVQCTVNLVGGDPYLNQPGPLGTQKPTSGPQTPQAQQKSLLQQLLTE
Sequence of Peroxisome proliferator-activated receptor gamma/Nuclear receptor coactivator 2 (P37231 whole entry): as the sequence (P37231 whole entry) above
Sequence of Peroxisome proliferator-activated receptor gamma/Nuclear receptor coactivator 2 (Q15596 whole entry, further chain): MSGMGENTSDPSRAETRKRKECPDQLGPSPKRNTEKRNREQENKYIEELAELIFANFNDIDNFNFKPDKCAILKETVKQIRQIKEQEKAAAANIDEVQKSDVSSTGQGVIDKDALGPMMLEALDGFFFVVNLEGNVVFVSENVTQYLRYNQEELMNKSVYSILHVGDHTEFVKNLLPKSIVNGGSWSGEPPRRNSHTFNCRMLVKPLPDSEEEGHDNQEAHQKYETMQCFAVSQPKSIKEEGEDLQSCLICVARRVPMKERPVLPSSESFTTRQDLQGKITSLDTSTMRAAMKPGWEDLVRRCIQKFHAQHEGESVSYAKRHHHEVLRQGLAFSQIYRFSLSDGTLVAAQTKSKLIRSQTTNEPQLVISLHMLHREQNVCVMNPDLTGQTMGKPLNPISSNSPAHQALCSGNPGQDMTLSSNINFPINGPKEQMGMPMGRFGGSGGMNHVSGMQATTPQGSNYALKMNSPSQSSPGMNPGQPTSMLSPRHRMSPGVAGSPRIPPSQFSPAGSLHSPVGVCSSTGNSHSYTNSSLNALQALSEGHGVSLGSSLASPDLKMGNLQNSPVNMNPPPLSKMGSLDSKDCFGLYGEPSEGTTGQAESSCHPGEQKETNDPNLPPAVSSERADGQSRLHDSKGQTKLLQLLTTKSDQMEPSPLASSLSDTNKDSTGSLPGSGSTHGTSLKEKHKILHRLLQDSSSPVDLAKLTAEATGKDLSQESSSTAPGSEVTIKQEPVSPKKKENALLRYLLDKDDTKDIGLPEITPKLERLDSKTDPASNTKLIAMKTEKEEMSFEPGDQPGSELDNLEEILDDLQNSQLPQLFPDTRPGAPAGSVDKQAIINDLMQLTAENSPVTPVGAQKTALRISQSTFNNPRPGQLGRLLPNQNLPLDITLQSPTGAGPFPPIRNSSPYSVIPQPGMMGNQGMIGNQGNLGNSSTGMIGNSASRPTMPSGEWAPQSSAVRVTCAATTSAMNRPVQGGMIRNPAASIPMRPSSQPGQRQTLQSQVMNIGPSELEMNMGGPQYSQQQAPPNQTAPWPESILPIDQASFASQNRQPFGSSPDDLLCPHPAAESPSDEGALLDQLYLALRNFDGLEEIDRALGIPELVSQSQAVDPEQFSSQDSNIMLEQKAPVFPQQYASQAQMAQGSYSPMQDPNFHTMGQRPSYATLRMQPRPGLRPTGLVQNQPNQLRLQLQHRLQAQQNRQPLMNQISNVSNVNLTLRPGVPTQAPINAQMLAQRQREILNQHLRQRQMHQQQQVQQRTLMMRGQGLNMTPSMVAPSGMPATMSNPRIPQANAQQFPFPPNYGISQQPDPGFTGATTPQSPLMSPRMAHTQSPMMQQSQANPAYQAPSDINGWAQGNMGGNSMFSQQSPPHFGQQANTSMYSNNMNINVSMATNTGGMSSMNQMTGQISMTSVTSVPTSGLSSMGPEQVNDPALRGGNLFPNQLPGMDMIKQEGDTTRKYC

- EC50 (Mu-type opioid receptor [1]): > 32 µM (inactive)
- EC50 [2]: 7.69 µM (active)
- IC50 [3]: > 32 µM (inactive)
- IC50 [4]: > 32 µM (inactive)
- EC50 [5]: 4.84 µM
- EC50 [6]: > 32 µM (inactive)
- IC50 (Mu-type opioid receptor [7]): > 32 µM (inactive)
- IC50 [8]: > 32 µM (inactive)
- EC50 [9]: 4.95 µM
- EC50 [10]: 8.38 µM (active)
- EC50 [11]: > 32 µM (inactive)
- EC50 (Mu-type opioid receptor [12]): > 32 µM (inactive)
SMILES: CCCCN(Cc1cc2cc(C)ccc2[nH]c1=O)C(=O)c1ccccn1

SMILES: N=c1ccn(Cc2ccc(Cl)c(Cl)c2)cc1
- IC50 [13]: 3.32 µM (active)
- IC50 [14]: 4.07 µM (active)

- IC50 (Hexokinase HKDC1): > 80 µM (inactive)
- IC50 (Hexokinase-1): > 80 µM (inactive)
SMILES: CCc1ccc(NC2c3ccccc3C(=O)N2c2ccccc2C)cc1 (configuration not stated)

- EC50 [15]: > 79.4 µM (not active)
- EC50 [16]: > 79.4 µM (not active)
- AC50 (Cytochrome P450 2D6): inconclusive
- AC50 (Cytochrome P450 2C9): 1.12 µM (inconclusive)
- EC50 [17]: 18.6 µM (not active)
- AC50 (Cytochrome P450 3A4): inconclusive
SMILES: c1ccc(CSc2ncnc3c2sc2nc(N4CCOCC4)c4c(c23)CCCC4)cc1
